In paper PMC11209911 (ACS Omega, 2024):

Biological target: α-glucosidase
Test: α-glucosidase inhibitor screening kit
Assay type: biochemical

IC50: 66.1 µM
Compound: C=C/C=C(\C)CC[C@@H]1C[C@@H](O)CC(=O)O1 [30b, (4R,6R)-4-Hydroxy-6-((E)-3-methylhexa-3,5-dien-1-yl)tetrahydro-2H-pyran-2-one]
